Assay results as given in publication PMC5920526 (ACS catalysis, 2017).

system: SpNanC; test: Substrate specificity of SpNanC with pNP-tagged α2–3-linked sialosides; assay type: biochemical, Streptococcus pneumoniae; conditions: reactions using 3 μg of SpNanC

| Structure (SMILES) | yield of cleavage by SpNanC [%] |
| --- | --- |
| CO[C@@H]([C@@H]1O[C@](O[C@H]2[C@@H](O)[C@@H](CO)O[C@@H](Oc3ccc([N+](=O)[O-])cc3)[C@@H]2O)(C(=O)O)C[C@H](O)[C@H]1O)[C@H](O)CO [Kdn7OMeα2–3GalβpNP] | 23 |
| O=C(O)C1(OC2C(O)C(CO)OC(Oc3ccc([N+](=O)[O-])cc3)C2O)CC(O)C(O)C(CC(O)CO)O1 (centres unmarked) [Kdn7deoxyα2–3GalβpNP] | 10 |

same assay, conditions: sialoside as substrate of SpNanC

| Structure (SMILES) | Percentage conversion [%] |
| --- | --- |
| O=C(O)[C@@]1(O[C@H]2[C@@H](O)[C@@H](CO)O[C@@H](Oc3ccc([N+](=O)[O-])cc3)[C@@H]2O)C[C@H](O)[C@@H](F)[C@H]([C@H](O)[C@H](O)CO)O1 [Kdn5Fα2–3GalβpNP] | 0.48 ± 0.00 |
| [N-]=[N+]=NC1C(O)CC(OC2C(O)C(CO)OC(Oc3ccc([N+](=O)[O-])cc3)C2O)(C(=O)O)OC1C(O)C(O)CO (stereo not drawn) [Kdn5N3α2–3GalβpNP] | 0.32 ± 0.45 |
| CO[C@H]1[C@H]([C@H](O)[C@H](O)CO)O[C@](O[C@H]2[C@@H](O)[C@@H](CO)O[C@@H](Oc3ccc([N+](=O)[O-])cc3)[C@@H]2O)(C(=O)O)C[C@@H]1O [Kdn5OMeα2–3GalβpNP] | 1.53 ± 1.02 |
| O=C(O)C1(OC2C(O)C(CO)OC(Oc3ccc([N+](=O)[O-])cc3)C2O)CC(O)CC(C(O)C(O)CO)O1 (centres unmarked) [Kdn5deoxyα2–3GalβpNP] | 5.31 ± 0.23 |
| O=C(O)[C@]1(O[C@H]2[C@@H](O)[C@@H](CO)O[C@@H](Oc3ccc([N+](=O)[O-])cc3)[C@@H]2O)C[C@H](O)[C@@H](O)[C@H]([C@H](F)[C@H](O)CO)O1 [Kdn7Fα2–3GalβpNP] | 0.56 ± 0.11 |
| [N-]=[N+]=NC(C(O)CO)C1OC(OC2C(O)C(CO)OC(Oc3ccc([N+](=O)[O-])cc3)C2O)(C(=O)O)CC(O)C1O (stereo not drawn) [Kdn7N3α2–3GalβpNP] | 4.50 ± 0.45 |
| CO[C@@H]([C@@H]1O[C@](O[C@H]2[C@@H](O)[C@@H](CO)O[C@@H](Oc3ccc([N+](=O)[O-])cc3)[C@@H]2O)(C(=O)O)C[C@H](O)[C@H]1O)[C@H](O)CO [Kdn7OMeα2–3GalβpNP] | 23.4 ± 3.3 |
| O=C(O)C1(OC2C(O)C(CO)OC(Oc3ccc([N+](=O)[O-])cc3)C2O)CC(O)C(O)C(CC(O)CO)O1 (centres unmarked) [Kdn7deoxyα2–3GalβpNP] | 10.1 ± 0.0 |
| O=C(O)C1(OC2C(O)C(CO)OC(Oc3ccc([N+](=O)[O-])cc3)C2O)CC(O)C(O)C(C(O)C(O)CF)O1 (centres unmarked) [Kdn9Fα2–3GalβpNP] | 3.70 ± 1.14 |
| COCC(O)C(O)C1OC(OC2C(O)C(CO)OC(Oc3ccc([N+](=O)[O-])cc3)C2O)(C(=O)O)CC(O)C1O (centres unmarked) [Kdn9OMeα2–3GalβpNP] | 4.02 ± 1.36 |
| O=C(O)[C@]1(O[C@H]2[C@@H](O)[C@@H](CO)O[C@@H](Oc3ccc([N+](=O)[O-])cc3)[C@@H]2O)C[C@H](O)[C@@H](O)[C@H]([C@H](O)[C@H](O)CO)O1 [Kdnα2–3GalβpNP] | 4.50 ± 0.45 |
| CC(=O)NC1C(O)CC(OC2C(O)C(CO)OC(Oc3ccc([N+](=O)[O-])cc3)C2O)(C(=O)O)OC1C(F)C(O)CO (centres unmarked) [Neu5Ac7Fα2–3GalβpNP] | 91.0 ± 4.3 |
| CC(=O)NC1C(O)CC(OC2C(O)C(CO)OC(Oc3ccc([N+](=O)[O-])cc3)C2O)(C(=O)O)OC1C(N=[N+]=[N-])C(O)CO (stereo not drawn) [Neu5Ac7N3α2–3GalβpNP] | 65.9 ± 1.1 |
| COC(C(O)CO)C1OC(OC2C(O)C(CO)OC(Oc3ccc([N+](=O)[O-])cc3)C2O)(C(=O)O)CC(O)C1NC(C)=O (centres unmarked) [Neu5Ac7OMeα2–3GalβpNP] | 96.5 ± 1.7 |
| CC(=O)N[C@H]1[C@H](C[C@H](O)CO)O[C@@](O[C@H]2[C@@H](O)[C@@H](CO)O[C@@H](Oc3ccc([N+](=O)[O-])cc3)[C@@H]2O)(C(=O)O)C[C@@H]1O [Neu5Ac7deoxyα2–3GalβpNP] | 91.2 ± 1.8 |
| CC(=O)N[C@H]1[C@H]([C@H](O)[C@H](O)CF)O[C@@](O[C@H]2[C@@H](O)[C@@H](CO)O[C@@H](Oc3ccc([N+](=O)[O-])cc3)[C@@H]2O)(C(=O)O)C[C@@H]1O [Neu5Ac9Fα2–3GalβpNP] | 75.6 ± 3.9 |
| COCC(O)C(O)C1OC(OC2C(O)C(CO)OC(Oc3ccc([N+](=O)[O-])cc3)C2O)(C(=O)O)CC(O)C1NC(C)=O (centres unmarked) [Neu5Ac9OMeα2–3GalβpNP] | 88.5 ± 5.1 |
| CC(=O)NC1C(O)CC(OC2C(O)C(CO)OC(Oc3ccc([N+](=O)[O-])cc3)C2O)(C(=O)O)OC1C(O)C(C)O (centres unmarked) [Neu5Ac9deoxyα2–3GalβpNP] | 93.5 ± 3.1 |
